Source: ChEMBL document CHEMBL1134813, “Inhibition of HIV-1 infection by synthetic peptide analogues derived from the NH(2)-Terminal extracellular region of GPR1” (Bioorg Med Chem Lett, 2001)
Where a SMILES comes first, the peptide text is derived from it. [ ]: non-standard residue; d: D form. The star is where a group is joined. sY = N[C@@H](Cc1ccc(OS(=O)(=O)O)cc1)C(=O)O; X1 = O=S(=O)(O)O*

Columns and labels:
[1] = Anti HIV-1 activity measured in terms of cytotoxicity against NP-2/CD4/GPR1 cells infected with HIV-1 (GUN1V); format: functional, cell-based, Homo sapiens
C8166 [2] = assay: Anti HIV-1 activity was evaluated through C8166/GUN1WT syncytium formation assay at a concentration of 200 ug/mL; format: functional, Homo sapiens
C8166 [3] = assay: Anti HIV-1 activity was evaluated through C8166/GUN1WT syncytium formation assay at a concentration of 50 ug/mL; format: functional, Homo sapiens
C8166 [4] = assay: Anti HIV-1 activity was evaluated through C8166/GUN1WT syncytium formation assay at a concentration of 1000 ug/mL; format: functional, Homo sapiens
[5] = Anti HIV-1 activity measured in terms of cytotoxicity against NP-2/CD4/CCR5 cells infected with HIV-1(GUN1WT); format: functional, cell-based, Homo sapiens
[6] = Anti HIV-1 activity measured in terms of cytotoxicity against NP-2/CD4/CXCR4 cells infected with HIV-1 (IIIBstrain); format: functional, cell-based, Homo sapiens
[7] = Anti HIV-1 activity measured in terms of cytotoxicity against NP-2/CD4/CXCR4 cells infected with HIV-1(GUN1WT); format: functional, cell-based, Homo sapiens
C8166 [8] = assay: Anti HIV-1 activity was evaluated through C8166/GUN1WT syncytium formation assay at a concentration of 0 ug/mL; format: functional, Homo sapiens

Structure (SMILES)	IC50 [1] [µM]	Activity (C8166 [2])	Activity (C8166 [3])	Activity (C8166 [4])	IC50 ([5]; Homo sapiens, CCR5) [µM]	IC50 ([6]; Homo sapiens) [µM]	IC50 ([7]; Homo sapiens) [µM]	IC50 ([1]; Homo sapiens) [µM]	IC50 ([5]; np-2/cd4/ccr5) [µM]	IC50 [6] [µM]	IC50 [7] [µM]	Activity (C8166 [8])
CC(C)C[C@H](NC(=O)[C@H](CC(=O)OS(=O)(=O)[O-])NC(=O)[C@H](Cc1ccc(OS(=O)(=O)[O-])cc1)NC(=O)[C@H](COS(=O)(=O)[O-])NC(=O)[C@@H](N)Cc1ccc(OS(=O)(=O)[O-])cc1)C(=O)N[C@@H](CC(=O)OS(=O)(=O)[O-])C(=O)N[C@@H](Cc1ccc(OS(=O)(=O)[O-])cc1)C(=O)N[C@@H](Cc1ccc(OS(=O)(=O)[O-])cc1)C(=O)O.[Na+].[Na+].[Na+].[Na+].[Na+].[Na+].[Na+]	660	210	235	191								
CCN(CC)CC.CCN(CC)CC.CCN(CC)CC.CCN(CC)CC.CCN(CC)CC.CCN(CC)CC.CCN(CC)CC.CCN(CC)CC.COC(=O)C(=O)N1CCC[C@H]1C(=O)N[C@H](Cc1ccccc1)C(=O)Nc1ccccc1OCC(=O)N[C@@H](Cc1ccc(OS(=O)(=O)O)cc1)C(=O)N[C@@H](COS(=O)(=O)O)C(=O)N[C@@H](Cc1ccc(OS(=O)(=O)O)cc1)C(=O)N[C@@H](CC(=O)OS(=O)(=O)O)C(=O)N[C@@H](CC(C)C)C(=O)N[C@@H](CC(=O)OS(=O)(=O)O)C(=O)N[C@@H](Cc1ccc(OS(=O)(=O)O)cc1)C(=O)N[C@@H](Cc1ccc(OS(=O)(=O)O)cc1)C(=O)O		66	219	1	42	10	10	4.1				
CC(C)C[C@H](NC(=O)[C@H](CC(=O)OS(=O)(=O)O)NC(=O)[C@H](Cc1ccc(OS(=O)(=O)O)cc1)NC(=O)[C@H](COS(=O)(=O)O)NC(=O)[C@@H](N)Cc1ccc(OS(=O)(=O)O)cc1)C(=O)N[C@@H](CC(=O)OS(=O)(=O)O)C(=O)N[C@@H](Cc1ccc(OS(=O)(=O)O)cc1)C(=O)N[C@@H](Cc1ccc(OS(=O)(=O)O)cc1)C(=O)O.CCN(CC)CC.CCN(CC)CC.CCN(CC)CC.CCN(CC)CC.CCN(CC)CC.CCN(CC)CC.CCN(CC)CC	4.5	52	258	4					42	18	10	
CC(C)C[C@H](NC(=O)[C@H](CC(=O)OS(=O)(=O)O)NC(=O)[C@H](Cc1ccc(OS(=O)(=O)O)cc1)NC(=O)[C@H](COS(=O)(=O)O)NC(=O)[C@@H](N)Cc1ccc(OS(=O)(=O)O)cc1)C(=O)N[C@@H](CC(=O)OS(=O)(=O)O)C(=O)N[C@@H](Cc1ccc(OS(=O)(=O)O)cc1)C(=O)N[C@@H](Cc1ccc(OS(=O)(=O)O)cc1)C(=O)O	> 1000	165	231	124					> 1000	> 1000	> 1000	
CCN(CC)CC.CCN(CC)CC.CCN(CC)CC.CCN(CC)CC.CCN(CC)CC.COC(=O)C(=O)N1CCC[C@H]1C(=O)N[C@H](Cc1ccccc1)C(=O)Nc1ccccc1OCC(=O)N[C@@H](Cc1ccc(OS(=O)(=O)O)cc1)C(=O)N[C@@H](CC(=O)OS(=O)(=O)O)C(=O)N[C@@H](CC(C)C)C(=O)N[C@@H](CC(=O)OS(=O)(=O)O)C(=O)N[C@@H](Cc1ccc(OS(=O)(=O)O)cc1)C(=O)N[C@@H](Cc1ccc(OS(=O)(=O)O)cc1)C(=O)O		88	182	12	60	55	80	35				
COC(=O)C(=O)N1CCC[C@H]1C(=O)N[C@H](Cc1ccccc1)C(=O)Nc1ccccc1OCC(=O)N[C@@H](Cc1ccc(O)cc1)C(=O)N[C@@H](CC(=O)O)C(=O)N[C@@H](CC(C)C)C(=O)N[C@@H](CC(=O)O)C(=O)N[C@@H](Cc1ccc(O)cc1)C(=O)N[C@@H](Cc1ccc(O)cc1)C(=O)O		100	155	55	120	150	100	100				192
COC(=O)C(=O)N1CCC[C@H]1C(=O)N[C@H](Cc1ccccc1)C(=O)Nc1ccccc1OCC(=O)N[C@@H](Cc1ccc(O)cc1)C(=O)N[C@@H](CO)C(=O)N[C@@H](Cc1ccc(O)cc1)C(=O)N[C@@H](CC(=O)O)C(=O)N[C@@H](CC(C)C)C(=O)N[C@@H](CC(=O)O)C(=O)N[C@@H](Cc1ccc(O)cc1)C(=O)N[C@@H](Cc1ccc(O)cc1)C(=O)O		222	215	121	> 1000	> 1000	> 1000	660				
CC(C)C[C@H](NC(=O)[C@H](CC(=O)O)NC(=O)[C@@H](N)Cc1ccc(O)cc1)C(=O)N[C@@H](CC(=O)O)C(=O)N[C@@H](Cc1ccc(O)cc1)C(=O)N[C@@H](Cc1ccc(O)cc1)C(=O)O (H-YDLDYY-OH)		62	188	4	66	350	180	42				
CC(C)C[C@H](NC(=O)[C@H](CC(=O)O)NC(=O)[C@H](Cc1ccc(O)cc1)NC(=O)[C@H](CO)NC(=O)[C@@H](N)Cc1ccc(O)cc1)C(=O)N[C@@H](CC(=O)O)C(=O)N[C@@H](Cc1ccc(O)cc1)C(=O)N[C@@H](Cc1ccc(O)cc1)C(=O)O (H-YSYDLDYY-OH)		252	228	133	> 1000	> 1000	> 1000	660				
CC(C)C[C@H](NC(=O)[C@H](CC(=O)OS(=O)(=O)O)NC(=O)[C@@H](N)Cc1ccc(OS(=O)(=O)O)cc1)C(=O)N[C@@H](CC(=O)OS(=O)(=O)O)C(=O)N[C@@H](Cc1ccc(OS(=O)(=O)O)cc1)C(=O)N[C@@H](Cc1ccc(OS(=O)(=O)O)cc1)C(=O)O.CCN(CC)CC.CCN(CC)CC.CCN(CC)CC.CCN(CC)CC.CCN(CC)CC (H-[sY]D(X1)LD(X1)[sY][sY]-OH)		52	193	0	55	15	65	25				215
